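Tested at 5 concentrations; 48 h exposure; 96-well plates; endpoints linearly interpolated, else capped at highest concentration. TGI denotes the concentration required for complete inhibition of growth.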
Assays:
Assay in all cases: DTP human tumour cell line panel, 48 h
SNB-19 CNS = test system: SNB-19 CNS
OVCAR-4 ovarian = test system: OVCAR-4 ovarian
DLD-1 colon = test system: DLD-1 colon
LOX IMVI melanoma = test system: LOX IMVI melanoma
UACC-62 melanoma = test system: UACC-62 melanoma
SW-620 colon = test system: SW-620 colon
SK-MEL-2 melanoma = test system: SK-MEL-2 melanoma
K-562 leukemia = test system: K-562 leukemia
NCI-H522 lung = test system: NCI-H522 lung
SF-268 CNS = test system: SF-268 CNS
SF-539 CNS = test system: SF-539 CNS
XF 498 CNS = test system: XF 498 CNS
DMS 114 small cell lung = test system: DMS 114 small cell lung
M14 melanoma = test system: M14 melanoma
NCI-H23 lung = test system: NCI-H23 lung
M19-MEL melanoma = test system: M19-MEL melanoma
UACC-257 melanoma = test system: UACC-257 melanoma
OVCAR-8 ovarian = test system: OVCAR-8 ovarian
ACHN renal = test system: ACHN renal
LXFL 529 NSCLC = test system: LXFL 529 NSCLC
SR leukemia = test system: SR leukemia
DMS 273 small cell lung = test system: DMS 273 small cell lung
U251 CNS = test system: U251 CNS
TK-10 renal = test system: TK-10 renal
HCC-2998 colon = test system: HCC-2998 colon
EKVX NSCLC = test system: EKVX NSCLC
MALME-3M melanoma = test system: MALME-3M melanoma
OVCAR-5 ovarian = test system: OVCAR-5 ovarian
HL-60(TB) leukemia = test system: HL-60(TB) leukemia
SN12C renal = test system: SN12C renal
NCI-H226 lung = test system: NCI-H226 lung
SF-295 CNS = test system: SF-295 CNS
RXF 393 renal = test system: RXF 393 renal
RXF-631 renal = test system: RXF-631 renal
NCI-H460 lung = test system: NCI-H460 lung
KM20L2 colon = test system: KM20L2 colon
MOLT-4 leukemia = test system: MOLT-4 leukemia
COLO 205 colon = test system: COLO 205 colon
HOP-62 NSCLC = test system: HOP-62 NSCLC
CAKI-1 renal = test system: CAKI-1 renal
KM12 colon = test system: KM12 colon
UO-31 renal = test system: UO-31 renal
OVCAR-3 ovarian = test system: OVCAR-3 ovarian
SK-OV-3 ovarian = test system: SK-OV-3 ovarian
CCRF-CEM leukemia = test system: CCRF-CEM leukemia
786-0 renal = test system: 786-0 renal
SK-MEL-28 melanoma = test system: SK-MEL-28 melanoma
IGROV1 ovarian = test system: IGROV1 ovarian
HCT-15 colon = test system: HCT-15 colon
HCT-116 colon = test system: HCT-116 colon
A549 NSCLC = test system: A549 NSCLC
SK-MEL-5 melanoma = test system: SK-MEL-5 melanoma
HOP-92 NSCLC = test system: HOP-92 NSCLC
SNB-75 CNS = test system: SNB-75 CNS
A498 renal = test system: A498 renal
RPMI-8226 leukemia = test system: RPMI-8226 leukemia
HT29 colon = test system: HT29 colon
SNB-78 CNS = test system: SNB-78 CNS

`Cc1nc(-c2nc(C)c(C(=O)/C=C/c3ccc(N(C)C)cc3)s2)sc1C(=O)/C=C/c1ccc(N(C)C)cc1` was tested, and the TGI (SNB-19 CNS) was > 100 µM, the TGI (OVCAR-4 ovarian) was > 100 µM and the TGI (DLD-1 colon) was > 100 µM. For the same compound, the TGI (LOX IMVI melanoma) was > 100 µM, the TGI (UACC-62 melanoma) was 58 µM and the TGI (SW-620 colon) was > 100 µM. For the same compound, the TGI (SK-MEL-2 melanoma) was > 100 µM, the TGI (K-562 leukemia) was > 100 µM and the TGI (NCI-H522 lung) was 89.2 µM. The TGI (SF-268 CNS) was > 100 µM, the TGI (SF-539 CNS) was > 100 µM and the TGI (XF 498 CNS) was 44.6 µM. The TGI (DMS 114 small cell lung) was > 100 µM, the TGI (M14 melanoma) was > 100 µM and the TGI (NCI-H23 lung) was > 100 µM. For the same compound, the TGI (M19-MEL melanoma) was > 100 µM, the TGI (UACC-257 melanoma) was > 100 µM and the TGI (OVCAR-8 ovarian) was > 100 µM. The TGI (ACHN renal) was > 100 µM, the TGI (LXFL 529 NSCLC) was > 100 µM and the TGI (SR leukemia) was > 100 µM. For the same compound, the TGI (DMS 273 small cell lung) was > 100 µM, the TGI (U251 CNS) was > 100 µM and the TGI (TK-10 renal) was > 100 µM. The TGI (HCC-2998 colon) was > 100 µM, the TGI (EKVX NSCLC) was > 100 µM and the TGI (MALME-3M melanoma) was > 100 µM. For the same compound, the TGI (OVCAR-5 ovarian) was > 100 µM, the TGI (HL-60(TB) leukemia) was > 100 µM and the TGI (SN12C renal) was > 100 µM. For the same compound, the TGI (NCI-H226 lung) was > 100 µM, the TGI (SF-295 CNS) was > 100 µM and the TGI (RXF 393 renal) was > 100 µM. The TGI (RXF-631 renal) was > 100 µM, the TGI (NCI-H460 lung) was > 100 µM and the TGI (KM20L2 colon) was > 100 µM. The TGI (MOLT-4 leukemia) was > 100 µM, the TGI (COLO 205 colon) was > 100 µM and the TGI (HOP-62 NSCLC) was > 100 µM. For the same compound, the TGI (CAKI-1 renal) was > 100 µM, the TGI (KM12 colon) was > 100 µM and the TGI (UO-31 renal) was > 100 µM. The TGI (OVCAR-3 ovarian) was > 100 µM, the TGI (SK-OV-3 ovarian) was > 100 µM and the TGI (CCRF-CEM leukemia) was > 100 µM. For the same compound, the TGI (786-0 renal) was > 100 µM, the TGI (SK-MEL-28 melanoma) was > 100 µM and the TGI (IGROV1 ovarian) was > 100 µM. For the same compound, the TGI (HCT-15 colon) was > 100 µM, the TGI (HCT-116 colon) was > 100 µM and the TGI (A549 NSCLC) was > 100 µM.

`Cc1cc2c(c(C(N)=O)c1C)-c1cccc(Cl)c1C2=O` was tested, and the TGI (SNB-19 CNS) was > 100 µM, the TGI (OVCAR-4 ovarian) was > 100 µM and the TGI (DLD-1 colon) was > 100 µM. The TGI (LOX IMVI melanoma) was > 100 µM, the TGI (UACC-62 melanoma) was > 100 µM and the TGI (SW-620 colon) was > 100 µM. For the same compound, the TGI (SK-MEL-2 melanoma) was > 100 µM, the TGI (SK-MEL-5 melanoma) was > 100 µM and the TGI (K-562 leukemia) was > 100 µM. The TGI (NCI-H522 lung) was > 100 µM, the TGI (SF-268 CNS) was > 100 µM and the TGI (SF-539 CNS) was > 100 µM. The TGI (XF 498 CNS) was > 100 µM, the TGI (DMS 114 small cell lung) was > 100 µM and the TGI (M14 melanoma) was > 100 µM. The TGI (NCI-H23 lung) was > 100 µM, the TGI (UACC-257 melanoma) was > 100 µM and the TGI (OVCAR-8 ovarian) was > 100 µM. The TGI (ACHN renal) was > 100 µM, the TGI (LXFL 529 NSCLC) was > 100 µM and the TGI (DMS 273 small cell lung) was > 100 µM. For the same compound, the TGI (U251 CNS) was > 100 µM, the TGI (TK-10 renal) was > 100 µM and the TGI (HCC-2998 colon) was > 100 µM. The TGI (EKVX NSCLC) was > 100 µM, the TGI (HOP-92 NSCLC) was > 100 µM and the TGI (SNB-75 CNS) was > 100 µM. For the same compound, the TGI (MALME-3M melanoma) was > 100 µM, the TGI (OVCAR-5 ovarian) was > 100 µM and the TGI (HL-60(TB) leukemia) was > 100 µM. For the same compound, the TGI (SN12C renal) was > 100 µM, the TGI (A498 renal) was > 100 µM and the TGI (SF-295 CNS) was > 100 µM. For the same compound, the TGI (RPMI-8226 leukemia) was > 100 µM, the TGI (RXF-631 renal) was > 100 µM and the TGI (NCI-H460 lung) was > 100 µM. For the same compound, the TGI (KM20L2 colon) was > 100 µM, the TGI (MOLT-4 leukemia) was > 100 µM and the TGI (HT29 colon) was > 100 µM. For the same compound, the TGI (COLO 205 colon) was > 100 µM, the TGI (HOP-62 NSCLC) was > 100 µM and the TGI (SNB-78 CNS) was > 100 µM. For the same compound, the TGI (KM12 colon) was > 100 µM, the TGI (UO-31 renal) was > 100 µM and the TGI (OVCAR-3 ovarian) was > 100 µM. The TGI (SK-OV-3 ovarian) was > 100 µM, the TGI (CCRF-CEM leukemia) was > 100 µM and the TGI (786-0 renal) was > 100 µM. The TGI (SK-MEL-28 melanoma) was > 100 µM, the TGI (IGROV1 ovarian) was > 100 µM and the TGI (HCT-15 colon) was > 100 µM. For the same compound, the TGI (HCT-116 colon) was > 100 µM and the TGI (A549 NSCLC) was > 100 µM.

— PubChem BioAssay (NCI)
